From US20250041380A1, “R[…] FOR SARS-COV2 DISEASE” (priority 2021, published 2025)
Where two headings read alike, the source gives them in different places.

What was measured:
Kidney cells (HEK-293) = assay: cells; assay type: cell-based; conditions: Spike S1 Protein (100 ng/ml); for inhibition at 0.1 µM / inhibition at 1 µM / inhibition at 10 µM / inhibition at 20 µM: Homo sapiens, HEK293
liver cells (HepG2) = assay: cells; assay type: cell-based; conditions: Spike S1 Protein (20 μg/ml)
Cardiac cells (H9C2) = assay: cells; assay type: cell-based; conditions: Spike S1 Protein (5 μg/ml); for inhibition at 0.1 µM / inhibition at 1 µM / inhibition at 10 µM / inhibition at 20 µM: Rattus norvegicus, H9c2
[1] = system: pancreatic cells (PANC-1); assay: cells; assay type: cell-based; conditions: Spike S1 Protein (20 μg/ml)+
Lung (A549) cells = assay: in vitro; assay type: cell-based, Human; conditions: 48 h
Protocol: (§1) A549 cells were plated in DMEM+10% FBS at a density of 10,000 cells/well in 96-well culture plates and incubated at 37° C. for 24 h. THP-1 cells were plated in RPMI+10% FBS at a density of 10,000 cells/well in 96-well culture plates and incubated at 37° C. for 24 h. Cells were sera-starved for 24 h. […] Untreated cells were used as control. Cells treated with dexamethasone and hydroxychloroquine were included as positive control. After treatment, cells were incubated in a 5% CO2 incubator for 48 h.

Bone cells (MG-63) = assay: cells; assay type: cell-based; conditions: Spike S1 Protein (10 μg/ml); for inhibition at 0.1 µM / inhibition at 1 µM / inhibition at 10 µM / inhibition at 20 µM: Homo sapiens, MG-63
Immune (THP-1) cells = assay: in vitro; assay type: cell-based, Human; conditions: 48 h
Protocol: as §1

Colon cells (HT-29) = assay: cells; assay type: cell-based; conditions: Spike S1 Protein (1 μg/ml); for inhibition at 0.1 µM / inhibition at 1 µM / inhibition at 10 µM / inhibition at 20 µM: Homo sapiens, HT-29
Bladder cells (T24) = assay: tissue or blood; assay type: cell-based; conditions: Spike S1 Protein (5 μg/ml)
[2] = system: Endothelial cells (EA.hy926); assay: cells; assay type: cell-based; conditions: Spike S1 Protein (1 μg/ml); for inhibition at 0.1 µM / inhibition at 1 µM / inhibition at 10 µM / inhibition at 20 µM: Homo sapiens, EA.hy 926
[3] = 0.1 μM, read-out: % Inhibition (wrt Control), IL-6
[4] = 0.1 μM, read-out: % Inhibition (wrt Control), IL-8
[5] = 1 μM, read-out: % Inhibition (wrt Control), IL-6
[6] = 1 μM, read-out: % Inhibition (wrt Control), IL-8
[7] = 10 μM, read-out: % Inhibition (wrt Control), IL-6
[8] = 10 μM, read-out: % Inhibition (wrt Control), IL-8
[9] = 20 μM, read-out: % Inhibition (wrt Control), IL-6
[10] = 20 μM, read-out: % Inhibition (wrt Control), IL-8
[11] = 0.1 μM, read-out: % Inhibition (IL-6)
[12] = 0.1 μM, read-out: % Inhibition (IL-8)
[13] = 1 μM, read-out: % Inhibition (IL-6)
[14] = 1 μM, read-out: % Inhibition (IL-8)
[15] = 10 μM, read-out: % Inhibition (IL-6)
[16] = 10 μM, read-out: % Inhibition (IL-8)
[17] = 20 μM, read-out: % Inhibition (IL-6)
[18] = 20 μM, read-out: % Inhibition (IL-8)

## C[C@@H]1C[C@H]2[C@@H]3CCC4=CC(=O)C=C[C@]4(C)[C@@]3(F)[C@@H](O)C[C@]2(C)[C@@]1(O)C(=O)CO [Dexamethasone]
Kidney cells (HEK-293); 0.1 μM
  Con. of IL-8: 447.3 pg/mL
  Conc. of IL-6: 64.5 pg/mL
Kidney cells (HEK-293); 1 μM
  Con. of IL-8: 453.6 pg/mL
  Conc. of IL-6: 65.6 pg/mL
Kidney cells (HEK-293); 10 μM
  Con. of IL-8: 551.8 pg/mL
  Conc. of IL-6: 79.6 pg/mL
Kidney cells (HEK-293); 20 μM
  Con. of IL-8: 292.7 pg/mL
  Conc. of IL-6: 42.6 pg/mL
Kidney cells (HEK-293); [3]
  inhibition at 0.1 µM: 75.2%
Kidney cells (HEK-293); [4]
  inhibition at 0.1 µM: 76.6%
Kidney cells (HEK-293); [5]
  inhibition at 1 µM: 74.8%
Kidney cells (HEK-293); [6]
  inhibition at 1 µM: 76.3%
Kidney cells (HEK-293); [7]
  inhibition at 10 µM: 69.4%
Kidney cells (HEK-293); [8]
  inhibition at 10 µM: 71.2%
Kidney cells (HEK-293); [9]
  inhibition at 20 µM: 83.6%
Kidney cells (HEK-293); [10]
  inhibition at 20 µM: 84.7%
Liver cells (HepG2); 0.1 μM
  Conc. of IL-8: 91.4 pg/mL
Liver cells (HepG2); 1 μM
  Conc. of IL-8: 21.5 pg/mL
Liver cells (HepG2); 10 μM
  Conc. of IL-8: 64.4 pg/mL
Liver cells (HepG2); 20 μM
  Conc. of IL-8: 23.9 pg/mL
Liver cells (HepG2); Homo sapiens, HepG2, 0.1 μM, read-out: % Inhibition (wrt Control ), IL-8
  inhibition at 0.1 µM: 81.7%
Liver cells (HepG2); Homo sapiens, HepG2, 1 μM, read-out: % Inhibition (wrt Control ), IL-8
  inhibition at 1 µM: 95.7%
Liver cells (HepG2); Homo sapiens, HepG2, 10 μM, read-out: % Inhibition (wrt Control ), IL-8
  inhibition at 10 µM: 87.1%
Liver cells (HepG2); Homo sapiens, HepG2, 20 μM, read-out: % Inhibition (wrt Control ), IL-8
  inhibition at 20 µM: 95.2%
Cardiac cells (H9C2); 0.1 μM
  Con. of IL-8: 31.2
  Conc. of IL-6: 50.8
Cardiac cells (H9C2); 1 μM
  Con. of IL-8: 18.6
  Conc. of IL-6: 44.5
Cardiac cells (H9C2); 10 μM
  Con. of IL-8: 29.1
  Conc. of IL-6: 53.3
Cardiac cells (H9C2); 20 μM
  Con. of IL-8: 48.7
  Conc. of IL-6: 51.8
Cardiac cells (H9C2); [11]
  inhibition at 0.1 µM: 90%
Cardiac cells (H9C2); [12]
  inhibition at 0.1 µM: 97.8%
Cardiac cells (H9C2); [13]
  inhibition at 1 µM: 91.2%
Cardiac cells (H9C2); [14]
  inhibition at 1 µM: 98.7%
Cardiac cells (H9C2); [15]
  inhibition at 10 µM: 89.5%
Cardiac cells (H9C2); [16]
  inhibition at 10 µM: 98%
Cardiac cells (H9C2); [17]
  inhibition at 20 µM: 89.7%
Cardiac cells (H9C2); [18]
  inhibition at 20 µM: 96.6%
[1]; 0.1 μM
  Conc. of IL-8: 330.5 pg/mL
[1]; 1 μM
  Conc. of IL-8: 296.2 pg/mL
[1]; 10 μM
  Conc. of IL-8: 342.8 pg/mL
[1]; 20 μM
  Conc. of IL-8: 255.7 pg/mL
[1]; Homo sapiens, PANC-1, 0.1 μM, read-out: % Inhibition (wrt Control ), IL-8
  inhibition at 0.1 µM: 55.7%
[1]; Homo sapiens, PANC-1, 1 μM, read-out: % Inhibition (wrt Control ), IL-8
  inhibition at 1 µM: 60.3%
[1]; Homo sapiens, PANC-1, 10 μM, read-out: % Inhibition (wrt Control ), IL-8
  inhibition at 10 µM: 54.1%
[1]; Homo sapiens, PANC-1, 20 μM, read-out: % Inhibition (wrt Control ), IL-8
  inhibition at 20 µM: 65.7%
Lung (A549) cells; 0.1 μM
  % Viability: 122.7%
Lung (A549) cells; 1 μM
  % Viability: 76.3%
Lung (A549) cells; 5 μM
  % Viability: 90.0%
Lung (A549) cells; 10 μM
  % Viability: 82.6%
Lung (A549) cells; 20 μM
  % Viability: 69.5%
Bone cells (MG-63); 0.1 μM
  Con. of IL-8: 407.8 pg/mL
  Conc. of IL-6: 49.3 pg/mL
Bone cells (MG-63); 1 μM
  Con. of IL-8: 355.6 pg/mL
  Conc. of IL-6: 50.9 pg/mL
Bone cells (MG-63); 10 μM
  Con. of IL-8: 400.6 pg/mL
  Conc. of IL-6: 46.2 pg/mL
Bone cells (MG-63); 20 μM
  Con. of IL-8: 427.8 pg/mL
  Conc. of IL-6: 52.0 pg/mL
Bone cells (MG-63); [3]
  inhibition at 0.1 µM: 69.2%
Bone cells (MG-63); [4]
  inhibition at 0.1 µM: 42.4%
Bone cells (MG-63); [5]
  inhibition at 1 µM: 68.2%
Bone cells (MG-63); [6]
  inhibition at 1 µM: 49.8%
Bone cells (MG-63); [7]
  inhibition at 10 µM: 71.1%
Bone cells (MG-63); [8]
  inhibition at 10 µM: 43.4%
Bone cells (MG-63); [9]
  inhibition at 20 µM: 67.5%
Bone cells (MG-63); [10]
  inhibition at 20 µM: 39.6%
Immune (THP-1) cells; 0.1 μM
  % Viability: 110.0%
Immune (THP-1) cells; 1 μM
  % Viability: 98.2%
Immune (THP-1) cells; 5 μM
  % Viability: 83.1%
Immune (THP-1) cells; 10 μM
  % Viability: 95.6%
Immune (THP-1) cells; 20 μM
  % Viability: 104.3%
Colon cells (HT-29); 0.1 μM
  Con. of IL-8: 44.1 pg/mL
  Conc. of IL-6: 106.0 pg/mL
Colon cells (HT-29); 1 μM
  Con. of IL-8: 18.2 pg/mL
  Conc. of IL-6: 89.1 pg/mL
Colon cells (HT-29); 10 μM
  Con. of IL-8: 53.5 pg/mL
  Conc. of IL-6: 73.6 pg/mL
Colon cells (HT-29); 20 μM
  Con. of IL-8: 66.4 pg/mL
  Conc. of IL-6: 109.0 pg/mL
Colon cells (HT-29); [3]
  inhibition at 0.1 µM: 55%
Colon cells (HT-29); [4]
  inhibition at 0.1 µM: 93.4%
Colon cells (HT-29); [5]
  inhibition at 1 µM: 62.2%
Colon cells (HT-29); [6]
  inhibition at 1 µM: 97.3%
Colon cells (HT-29); [7]
  inhibition at 10 µM: 68.8%
Colon cells (HT-29); [8]
  inhibition at 10 µM: 92%
Colon cells (HT-29); [9]
  inhibition at 20 µM: 53.8%
Colon cells (HT-29); [10]
  inhibition at 20 µM: 90.1%
Bladder cells (T24); 0.1 μM
  Con. of IL-8: 2458.5
  Conc. of IL-6: 292.2
Bladder cells (T24); [11]
  inhibition at 0.1 µM: 49.4%
Bladder cells (T24); [12]
  inhibition at 0.1 µM: 42.5%
Bladder cells (T24); 1 μM
  Con. of IL-8: 2008.8
  Conc. of IL-6: 348.5
Bladder cells (T24); [13]
  inhibition at 1 µM: 39.7%
Bladder cells (T24); [14]
  inhibition at 1 µM: 53%
Bladder cells (T24); 10 μM
  Con. of IL-8: 2198.1
  Conc. of IL-6: 369.4
Bladder cells (T24); [15]
  inhibition at 10 µM: 36%
Bladder cells (T24); [16]
  inhibition at 10 µM: 48.6%
Bladder cells (T24); 20 μM
  Con. of IL-8: 2386.4
  Conc. of IL-6: 365.4
Bladder cells (T24); [17]
  inhibition at 20 µM: 36.7%
Bladder cells (T24); [18]
  inhibition at 20 µM: 44.2%
[2]; 0.1 μM
  Con. of IL-8: 1208.6 pg/mL
[2]; 1 μM
  Con. of IL-8: 1250.3 pg/mL
  Conc. of IL-6: 42.9 pg/mL
[2]; 10 μM
  Con. of IL-8: 1633.7 pg/mL
  Conc. of IL-6: 53.9 pg/mL
[2]; 20 μM
  Con. of IL-8: 1766.1 pg/mL
  Conc. of IL-6: 72.9 pg/mL
[2]; 0.1 μM, read-out: % Inhibition (wrt, IL-6)
  inhibition at 0.1 µM: 85.7%
[2]; 0.1 μM, read-out: % Inhibition (wrt, IL-8)
  inhibition at 0.1 µM: 25.2%
[2]; 1 μM, read-out: % Inhibition (wrt, IL-6)
  inhibition at 1 µM: 87.3%
[2]; 1 μM, read-out: % Inhibition (wrt, IL-8)
  inhibition at 1 µM: 22.6%
[2]; 10 μM, read-out: % Inhibition (wrt, IL-6)
  inhibition at 10 µM: 84%
[2]; 10 μM, read-out: % Inhibition (wrt, IL-8)
  inhibition at 10 µM: 0%
[2]; 20 μM, read-out: % Inhibition (wrt, IL-6)
  inhibition at 20 µM: 78.4%
[2]; 20 μM, read-out: % Inhibition (wrt, IL-8)
  inhibition at 20 µM: 0%
